Numbers after ± are expanded uncertainties.
conditions: Crystal; DTA

Row | Compound | Normal melting temperature [°C]
1 | CCn1cc[n+](C)c1.[Cl-] [1-ethyl-3-methylimidazolium chloride] | 84 ± 2
2 | CC(=O)[O-].CCCCCCCCCCCCCC[P+](CCCCCC)(CCCCCC)CCCCCC [trihexyl(tetradecyl)phosphonium acetate] | -67 ± 2
3 | CCCCCCCCCCCCCC[P+](CCCCCC)(CCCCCC)CCCCCC.[Cl-] [trihexyl(tetradecyl)phosphonium chloride] | -66 ± 2

same assay, conditions: Glass; DSC

Row | Glass transition temperature [°C] | Compound
4 | -63 ± 2 | CC(=O)[O-].CCCCn1cc[n+](C)c1 [1-butyl-3-methylimidazolium acetate]
5 | -52 ± 2 | CCCCn1cc[n+](C)c1.[Cl-] [1-butyl-3-methylimidazolium chloride]
6 | -71 ± 2 | CC(=O)[O-].CCn1cc[n+](C)c1 [1-ethyl-3-methylimidazolium acetate]
7 | -74 ± 2 | CCCCCCCC[n+]1ccn(C)c1.[Cl-] [1-methyl-3-octylimidazolium chloride]

Row | Compound | Glass transition temperature [°C]
8 | CCCCCCn1cc[n+](C)c1.[Cl-] [1-hexyl-3-methylimidazolium chloride] | -65 ± 2
